Results reported in patent US20240109903A1, “SUBSTITUTED HETEROCYCLES FOR TREATING CANCER” (Northwestern University, priority 2022, published 2024).
Read-outs that look alike come from different tables or passages of the source.

Columns and labels:
Assay type in all cases: cell-based
[1] = system: PC-3; experiment: NCI 60 five-dose screen PC-3; settings: Homo sapiens; for CC50: read-out: LC50 (the source's name) (converted)
[2] = system: TK-10; experiment: NCI 60 five-dose screen TK-10; settings: Homo sapiens; for CC50: read-out: LC50 (the source's name) (converted)
[3] = system: SF-295; experiment: NCI 60 five-dose screen SF-295; settings: Homo sapiens; for CC50: read-out: LC50 (the source's name) (converted)
[4] = system: HL-60(TB); experiment: NCI 60 five-dose screen HL-60(TB); settings: Homo sapiens; for CC50: read-out: LC50 (the source's name) (converted)
[5] = system: DU-145; experiment: NCI 60 five-dose screen DU-145; settings: Homo sapiens; for CC50: read-out: LC50 (the source's name) (converted)
[6] = system: RPMI-8226; experiment: NCI 60 five-dose screen RPMI-8226; settings: Homo sapiens; for CC50: read-out: LC50 (the source's name)
[7] = system: LOX IMVI; experiment: NCI 60 five-dose screen LOX IMVI; settings: Homo sapiens; for CC50: read-out: LC50 (the source's name) (converted)
[8] = system: MDA-MB-435; experiment: NCI 60 five-dose screen MDA-MB-435; settings: Homo sapiens; for CC50: read-out: LC50 (the source's name) (converted)
[9] = system: UO-31; experiment: NCI 60 five-dose screen UO-31; settings: Homo sapiens; for CC50: read-out: LC50 (the source's name) (converted)
[10] = system: KM12; experiment: NCI 60 five-dose screen KM12; settings: Homo sapiens; for CC50: read-out: LC50 (the source's name) (converted)
[11] = system: NCI-H322M; experiment: NCI 60 five-dose screen NCI-H322M; settings: Homo sapiens; for CC50: read-out: LC50 (the source's name) (converted)
[12] = system: OVCAR-5; experiment: NCI 60 five-dose screen OVCAR-5; settings: Homo sapiens; for CC50: read-out: LC50 (the source's name) (converted)
[13] = system: MOLT-4; experiment: NCI 60 five-dose screen MOLT-4; settings: Homo sapiens; for CC50: read-out: LC50 (the source's name)
[14] = system: MALME-3M; experiment: NCI 60 five-dose screen MALME-3M; settings: Homo sapiens; for CC50: read-out: LC50 (the source's name) (converted)

Fc1ccc(N2CC(Cn3c(C(F)(F)F)cc4c(Cl)ncnc43)C2)c(F)c1 [NUCC-0226695]
GI50 [1]: 3.09 µM
IC50 [1]: 4.27 µM
IC (TGI) [1]: 11 µM
CC50 [1]: 58.9 µM
GI50 [2]: 19.1 µM
IC50 [2]: 42.7 µM
IC (TGI) [2]: 51.3 µM
CC50 [2]: ≥ 100 µM
GI50 [3]: 11.5 µM
IC50 [3]: 20 µM
IC (TGI) [3]: 24.5 µM
CC50 [3]: 52.5 µM
GI50 [4]: 2.24 µM
IC50 [4]: 3.89 µM
IC (TGI) [4]: 6.31 µM
CC50 [4]: ≥ 100 µM
GI50 [5]: 12.6 µM
IC50 [5]: 21.9 µM
IC (TGI) [5]: 25.7 µM
CC50 [5]: 52.5 µM
GI50 [6]: 23.4 µM
IC50 [6]: 37.2 µM
IC (TGI) [6]: 64.6 µM
CC50 [6]: ≥ 100 µM
GI50 [7]: 1.62 µM
IC50 [7]: 2.82 µM
IC (TGI) [7]: 3.02 µM
CC50 [7]: 5.5 µM
GI50 [8]: 4.9 µM
IC50 [8]: 7.59 µM
IC (TGI) [8]: 17.8 µM
CC50 [8]: 44.7 µM
GI50 [9]: 2.69 µM
IC50 [9]: 5.75 µM
IC (TGI) [9]: 10.7 µM
CC50 [9]: 33.1 µM
GI50 [10]: 16.2 µM
IC50 [10]: 28.2 µM
IC (TGI) [10]: 30.9 µM
CC50 [10]: 60.3 µM
GI50 [11]: 10.7 µM
IC50 [11]: 20.4 µM
IC (TGI) [11]: 22.9 µM
CC50 [11]: 47.9 µM
GI50 [12]: 17.8 µM
IC50 [12]: 32.4 µM
IC (TGI) [12]: 37.2 µM
CC50 [12]: 77.6 µM
GI50 [13]: 3.09 µM
IC50 [13]: 4.57 µM
IC (TGI) [13]: 8.91 µM
CC50 [13]: ≥ 100 µM
GI50 ([14]; Malme-3M): 12.6 µM
IC50 ([14]; Malme-3M): 25.7 µM
IC (TGI) ([14]; Malme-3M): 25.1 µM
CC50 ([14]; Malme-3M): 50.1 µM

FC(F)(F)c1cc2c(Cl)ncnc2n1CCN1CCOCC1 [NUCC-0226680]
GI50 ([1]; five-dose): 11.2 µM
IC50 ([1]; five-dose): 19.1 µM
IC (TGI) ([1]; five-dose): 36.3 µM
CC50 ([1]; five-dose): ≥ 100 µM
GI50 ([2]; five-dose): 100 µM
IC50 ([2]; five-dose): 100 µM
IC (TGI) ([2]; five-dose): 100 µM
CC50 ([2]; five-dose): ≥ 100 µM
GI50 ([3]; five-dose): 24.5 µM
IC50 ([3]; five-dose): 45.7 µM
IC (TGI) ([3]; five-dose): 100 µM
CC50 ([3]; five-dose): ≥ 100 µM
GI50 ([4]; five-dose): 2.09 µM
IC50 ([4]; five-dose): 3.89 µM
IC (TGI) ([4]; five-dose): 6.03 µM
CC50 ([4]; five-dose): 66.1 µM
GI50 ([5]; five-dose): 28.8 µM
IC50 ([5]; five-dose): 50.1 µM
IC (TGI) ([5]; five-dose): 100 µM
CC50 ([5]; five-dose): ≥ 100 µM
GI50 ([6]; five-dose): 31.6 µM
IC50 ([6]; five-dose): 46.8 µM
IC (TGI) ([6]; five-dose): 100 µM
CC50 ([6]; five-dose): ≥ 100 µM
GI50 ([7]; five-dose): 1.74 µM
IC50 ([7]; five-dose): 3.02 µM
IC (TGI) ([7]; five-dose): 3.39 µM
CC50 ([7]; five-dose): 6.61 µM
GI50 ([8]; five-dose): 13.2 µM
IC50 ([8]; five-dose): 22.4 µM
IC (TGI) ([8]; five-dose): 29.5 µM
CC50 ([8]; five-dose): 64.6 µM
GI50 ([9]; five-dose): 2.51 µM
IC50 ([9]; five-dose): 5.37 µM
IC (TGI) ([9]; five-dose): 8.91 µM
CC50 ([9]; five-dose): 37.2 µM
GI50 ([10]; five-dose): 35.5 µM
IC50 ([10]; five-dose): 51.3 µM
IC (TGI) ([10]; five-dose): 100 µM
CC50 ([10]; five-dose): ≥ 100 µM
GI50 ([11]; five-dose): 15.8 µM
IC50 ([11]; five-dose): 41.7 µM
IC (TGI) ([11]; five-dose): 53.7 µM
CC50 ([11]; five-dose): ≥ 100 µM
GI50 ([12]; five-dose): 100 µM
IC50 ([12]; five-dose): 100 µM
IC (TGI) ([12]; five-dose): 100 µM
CC50 ([12]; five-dose): ≥ 100 µM
GI50 ([13]; five-dose): 5.75 µM
IC50 ([13]; five-dose): 10.7 µM
IC (TGI) ([13]; five-dose): 28.8 µM
CC50 ([13]; five-dose): ≥ 100 µM
GI50 ([14]; MALME-3M, five-dose): 21.9 µM
IC50 ([14]; MALME-3M, five-dose): 87.1 µM
IC (TGI) ([14]; MALME-3M, five-dose): 67.6 µM
CC50 ([14]; MALME-3M, five-dose): ≥ 100 µM
